Results reported in paper PMC11117929, “Benzamide Trimethoprim Derivatives as Human Dihydrofolate Reductase Inhibitors—Molecular Modeling and In Vitro Activity Study” (Biomedicines, 2024).

Legend:
[1] = molecular target: T1, recombinant human DHFR (Homo sapiens, UniProt P00374); assay: Dihydrofolate reductase (DHFR) inhibition assay (assay kit); assay type: biochemical; conditions: mean of three assays ± S.D.
T1 construct: purchased Sigma Aldrich (St. Louis, MO, USA)
T1 sequence (P00374 1-187): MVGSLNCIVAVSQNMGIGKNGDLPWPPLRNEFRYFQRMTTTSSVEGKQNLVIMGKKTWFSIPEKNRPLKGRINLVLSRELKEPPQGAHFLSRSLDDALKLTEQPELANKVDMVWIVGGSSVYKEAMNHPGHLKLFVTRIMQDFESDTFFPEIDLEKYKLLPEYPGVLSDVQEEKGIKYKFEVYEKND
Text: All reagents were purchased from Fluka (Sigma-Aldrich, Poznań, Poland), Merck (Darmstadt, Germany), or Alfa Aesar (Karlsruhe, Germany) and used without further purification. Dichloromethane (DCM) and dimethylformamide (DMF) were stored in 4 Å molecular sieves. The Dihydrofolate Reductase Assay Kit was purchased from Sigma Aldrich (St. Louis, MO, USA).
The inhibition of dihydrofolate reductase by the new TMP analogs, that is, determining their effect on the activity of recombinant human DHFR, was tested according to the instructions provided by the manufacturer and used previously.
In all experiments, the mean values for three assays ± standard deviations (S.D.) were calculated. The results were submitted to statistical analysis using the Student’s t-test. Differences were considered significant at p < 0.05.

[2] = molecular target: acetylcholinesterase (AChE); design: method as in PMID 37834347; conditions: cited from earlier work
[3] = molecular target: β-secretase (BACE1); design: method as in PMID 37834347; conditions: cited from earlier work
[4] = tested on: various cancer cells; design: method as in PMID 36680987; conditions: cited from earlier work
[5] = tested on: plasmid DNA; conditions: ethidium bromide displacement, netropsin as standard; cited from earlier work

SMILES | IC50 [1] [µM] | other results
COc1cc(C(=O)Nc2cccc(NC(=O)c3cc(OC)c(OC)c(OC)c3)c2)cc(OC)c1OC [JW1] | 8.5 ± 0.06 | 
COc1cc(OC)cc(C(=O)Nc2cccc(NC(=O)c3cc(OC)cc(OC)c3)c2)c1 [JW2] | 10.15 ± 0.02 | 
COc1ccc(C(=O)Nc2cccc(NC(=O)c3ccc(OC)c(OC)c3)c2)cc1OC [JW3] | 9.83 ± 0.03 | 
COc1ccc(C(=O)Nc2cccc(NC(=O)c3ccc(OC)cc3)c2)cc1 [JW4] | 15.3 ± 0.04 | 
COc1cc(C(=O)Nc2ccc(NC(=O)c3cc(OC)c(OC)c(OC)c3)cc2)cc(OC)c1OC [JW5] | 4.8 ± 0.05 | 
COc1cc(OC)cc(C(=O)Nc2ccc(NC(=O)c3cc(OC)cc(OC)c3)cc2)c1 [JW6] | 4.72 ± 0.05 | 
COc1ccc(C(=O)Nc2ccc(NC(=O)c3ccc(OC)c(OC)c3)cc2)cc1OC [JW7] | 8.13 ± 0.06 | 
COc1ccc(C(=O)Nc2ccc(NC(=O)c3ccc(OC)cc3)cc2)cc1 [JW8] | 12.15 ± 0.02 | IC50 [2]: 56 nM; IC50 [3]: 9.01 µM
COc1cc(C(=O)Nc2cccc([N+](=O)[O-])c2)cc(OC)c1OC [MB1] | 10.16 ± 0.01 | 
COc1cc(NC(=O)c2cc(OC)c(OC)c(OC)c2)cc(OC)c1OC [MB3] | 9.17 ± 0.01 | antiproliferative activity [4]: showed antiproliferative activity
COc1cc(CNC(=O)c2cc(OC)c(OC)c(OC)c2)cc(OC)c1OC [MB4] | 20.17 ± 0.03 | antiproliferative activity [4]: showed antiproliferative activity
COc1cc(Cc2cnc(N)nc2N)cc(OC)c1OC [TMP, trimethoprim] |  | binding to plasmid DNA [5]: does not bind to the plasmid
